# According to patent US5912266A, “Beta2 integrin cell adhesion molecule inhibitors” (American Home Products Corporation, priority 1997, dated 1999):
# Values joined by “and” are separate entries in the source; they are usually repeats but may differ in a detail not shown here. Equal entries are not always repeated.
# System: β2 integrin
# Experiment: Adhesion of activated, β2 integrin-expressing HL60 cells to recombinant soluble ICAM-1
# Format: cell-based, human
# Settings: for Percent Cells Bound: single well
# Protocol: HL60 cells were provided by the American Type Culture Collection (ATCC No. CCL240) and were used between passages 20 to 30 as the control β2 integrin expressing cells, following stimulation for exactly four days in culture media containing dimethylsulfoxide (DMSO). Culture media was comprised of RPMI 1640 (Gibco No. 3201870AJ) supplemented with Penicillin (100 Units/ml)/Streptomycin Sulfate ([…]) (Gibco No. 600-5145AE), L-Glutamine (2 mM) (Gibco No. 320-5030PG), and 10% heat inactivated fetal bovine serum (FBS, Hyclone No. A-1111L). Fetal bovine serum was heat inactivated by incubating in a 56° C. water bath for 30 minutes. Stimulation of the expression of the β2 integrin on HL60 cells was achieved by growing the cells at a density of 2.5×10^5 cells per ml of culture media for four days in the presence of 1.25% DMSO. Following the removal of the DMSO containing media, the β2 integrin on these cells was activated to a high affinity ICAM-1 binding state by the addition of 0.1 nM of (PMA) and PMN Buffer. This buffer was comprised of Hank's balanced salt solution (HBSS) supplemented with 1.2 mM calcium chloride, 1 mM magnesium chloride, 2% glucose, […] HEPES buffer. The ICAM-1 used to measure the adhesion of β2 integrin-bearing cells was obtained from cloning and expression of recombinant, soluble, human ICAM-1 using a baculovirus expression system and standard molecular biology technology. Soluble ICAM-1 was cloned by cleaving ICAM-1 DNA, purchased from R & D Systems, with restriction enzymes to obtain DNA that codes for the soluble (non-membrane) form of the protein. […] The soluble ICAM-1 was purified by passing the media from the ICAM-1 expressing cells over an anti-ICAM-1 antibody-linked sepharose column prepared using a standard immunoaffinity chromatography kit obtained from Pierce Inc.
# 200 ng of purified, recombinant, soluble ICAM-1 contained in 100 μl of PBS was added to wells of a flat bottom, 96 well EIA/RIA plate (Corning No. 25801), covered with an adhesive backed plate sealer (Linbro No. 76-401-05) and incubated for at least 18 hours at 4° C. to allow ICAM-1 to bind to the assay wells, prior to the addition of the β2 integrin expressing HL60 cells.
# HL60 cells were grown in 1.25% DMSO for 4 days and pelleted by centrifugation in a Sorvall RT6000 tabletop centrifuge for 5 minutes, 1000 rotations per minute (rpm), at room temperature. The resulting HL60 cell pellet was resuspended in 50 ml sterile Dulbecco's phosphate buffered saline (dPBS) (Gibco No. 310-4040AJ). The resulting cell pellet was resuspended in 50 ml dPBS and the cell concentration was determined using a hemacytometer. The cells were pelleted as described above and resuspended in PMN Buffer to 15 to 20×10^6 cells/ml. The resuspended HL60 cells were fluorescently labeled by mixing the cells with an equal volume of a 25 μM solution of Calcein AM (Molecular Probes No. C-1430) dye that had been dissolved in PMN Buffer. HL60 cells in the calcein AM solution was incubated in a 37° C. waterbath for 10 minutes with intermittent swirling of the reaction tube. The labeling reaction was stopped by the addition of 13 ml of ice-cold PMN Buffer and the cells were pelleted by centrifugation at 2000 rpm for 5 minutes at 4° C.
# The labeled cell pellet was resuspended in 15 ml of ice-cold PMN Buffer and the cell density was determined using a hemacytometer. Cells were then pelleted by centrifugation at 2000 rpm for 5 minutes followed by resuspension in ice-cold PMN Buffer to 2×10^5 cells/40 μl. The labeled cell suspension was placed in the dark at room temperature while asperlin containing solutions were prepared.
# Asperlin was solubilized in 100% DMSO at a concentration of 50 mg/ml. This stock was then diluted to 400 μg/ml with PMN Buffer and serial dilutions of the 400 μg/ml asperlin solution were prepared using PMN buffer containing 2% DMSO to obtain solutions ranging from 200 μg/ml to 1.56 μg/ml. […]
structure (smiles),measurement,setting,value
"CC(=O)OC1C=CC(=O)OC1C1OC1C [Asperlin, 6,7-Anhydro-2,3,8-trideoxy-D-galacto-oct-2-enoic acidδ-lactone 4-acetate]",% Inhibition of Cell Adhesion,Asperlin 1.56 μg/ml,-8%
same,Average Percent Cells Bound,Asperlin 1.56 μg/ml,26%
same,Bound Cell Fluorescence,Asperlin 1.56 μg/ml,1551 fluorescence units/well and 1755 fluorescence units/well
same,Percent Cells Bound,Asperlin 1.56 μg/ml,25% and 27%
same,% Inhibition of Cell Adhesion,Asperlin 3.125 μg/ml,-36%
same,Average Percent Cells Bound,Asperlin 3.125 μg/ml,33%
same,Bound Cell Fluorescence,Asperlin 3.125 μg/ml,1862 fluorescence units/well and 2077 fluorescence units/well
same,Percent Cells Bound,Asperlin 3.125 μg/ml,32% and 34%
same,% Inhibition of Cell Adhesion,Asperlin 6.25 μg/ml,29%
same,Average Percent Cells Bound,Asperlin 6.25 μg/ml,17%
same,Bound Cell Fluorescence,Asperlin 6.25 μg/ml,1003 fluorescence units/well and 1161 fluorescence units/well
same,Percent Cells Bound,Asperlin 6.25 μg/ml,15% and 19%
same,% Inhibition of Cell Adhesion,Asperlin 12.5 μg/ml,50%
same,Average Percent Cells Bound,Asperlin 12.5 μg/ml,12%
same,Bound Cell Fluorescence,Asperlin 12.5 μg/ml,589 fluorescence units/well and 768 fluorescence units/well
same,Percent Cells Bound,Asperlin 12.5 μg/ml,10% and 13%
same,% Inhibition of Cell Adhesion,Asperlin 25 μg/ml,83%
same,Average Percent Cells Bound,Asperlin 25 μg/ml,4%
same,Bound Cell Fluorescence,Asperlin 25 μg/ml,171 fluorescence units/well and 320 fluorescence units/well
same,Percent Cells Bound,Asperlin 25 μg/ml,2.6% and 5.3%
same,% Inhibition of Cell Adhesion,Asperlin 50 μg/ml,94%
same,Average Percent Cells Bound,Asperlin 50 μg/ml,1.4%
same,Bound Cell Fluorescence,Asperlin 50 μg/ml,82 fluorescence units/well and 77 fluorescence units/well
same,Percent Cells Bound,Asperlin 50 μg/ml,1.4% and 1.3%
same,% Inhibition of Cell Adhesion,Asperlin 100 μg/ml,97.5%
same,Average Percent Cells Bound,Asperlin 100 μg/ml,0.6%
same,Bound Cell Fluorescence,Asperlin 100 μg/ml,45 fluorescence units/well and 31 fluorescence units/well
same,Percent Cells Bound,Asperlin 100 μg/ml,0.7% and 0.5%
same,% Inhibition of Cell Adhesion,Asperlin 200 μg/ml,98%
same,Average Percent Cells Bound,Asperlin 200 μg/ml,0.5%
same,Bound Cell Fluorescence,Asperlin 200 μg/ml,29 fluorescence units/well and 28 fluorescence units/well
same,Percent Cells Bound,Asperlin 200 μg/ml,0.5%
same,Effect on adhesion of activated β2 integrin expressing cells to ICAM-1 (in words),summary of Table I,blocks the adhesion of activated β2 integrin expressing cells to ICAM-1
